Structures can show the parent of a compound that is named as a salt. Where two headings read alike, the source gives them in different places.
How the values were obtained:
[1] = tested on: LPS-induced microglia activation; assay: Image-based assay of LPS-induced microglia activation (HTS and dose response); format: cell-based, rat; details: for inhibition at 10 µM: read-out: LPS % inhibition
[2] = tested on: primary rat microglia; assay: Cell toxicity (dead cells, size <150 μm2) in coated fibrin (cFib) assay;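 further: share of dead cells sized under 150 µm2 at 10 µM in fibrin-stimulated microglia HTS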
[3] = tested on: fibrin-induced microglia activation; assay: Image-based assay of fibrin-induced microglia activation (HTS and dose response); format: cell-based, rat; details: for inhibition at 10 µM: read-out: Fibrin % inhibition
[4] = tested on: primary rat microglia; assay: Cell toxicity (dead cells, size <150 μm2) in LPS assay
[5] = tested on: fibrin- and LPS-induced microglia activation; assay: cells; format: cell-based, rat
[6] = Rattus norvegicus, Microglia, primary HTS, 10 μM, LPS-stimulated primary microglia
[7] = primary HTS, 10 μM, fibrin assay, dead cells size <150 μm2
[8] = Rattus norvegicus, Microglia, primary HTS, 10 μM, fibrin-stimulated primary microglia
[9] = primary HTS, 10 μM, LPS assay, dead cells size <150 μm2
[10] = Rattus norvegicus, Microglia, 48 h, primary microglia HTS, LPS stimulation, increased cell size (>800 μm^2) as marker of activation
[11] = primary microglia HTS, fibrin stimulation, decreased size (<150 μm^2) as marker of toxicity
[12] = Rattus norvegicus, Microglia, primary microglia HTS, fibrin stimulation, increased cell size (>800 μm^2) as marker of activation
[13] = primary microglia HTS, LPS stimulation, decreased size (<150 μm^2) as marker of toxicity
[14] = quadrant by fibrin and LPS inhibition in HTS of 1907 compounds
[15] = Rattus norvegicus, Microglia, 48 h, primary microglia HTS, LPS stimulation, activation = cell size >800 μm2
[16] = primary microglia HTS, fibrin stimulation, toxicity = cell size <150 μm2
[17] = Rattus norvegicus, Microglia, primary microglia HTS, fibrin stimulation, activation = cell size >800 μm2
[18] = primary microglia HTS, LPS stimulation, toxicity = cell size <150 μm2
[19] = Rattus norvegicus, Microglia, primary microglia HTS, 10 μM, LPS-stimulated, cell size >800 μm^2 as marker of activation
[20] = primary microglia HTS, 10 μM, fibrin assay, cell size <150 μm^2 as marker of toxicity
[21] = Rattus norvegicus, Microglia, primary microglia HTS, 10 μM, fibrin-stimulated, cell size >800 μm^2 as marker of activation
[22] = primary microglia HTS, 10 μM, LPS assay, cell size <150 μm^2 as marker of toxicity
[23] = HTS of 1907 compounds, quadrant by fibrin and LPS inhibition

CN(C)CCC(c1ccc(Br)cc1)c1ccccn1 (centres unmarked) [Brompheniramine]
inhibition at 10 µM [1, 6]: -7% | Fibrin % cell toxicity [2, 7]: 1% | inhibition at 10 µM [3, 8]: -20% | LPS % cell toxicity [4, 9]: −1% | Quadrant (FIG. 5b) ([5]; primary HTS, 10 μM): Q4

Cc1cc(=O)[nH]c(=S)[nH]1 [Methylthiouracil]
inhibition at 10 µM [1, 10]: 16% | Fibrin % cell toxicity [2, 11]: 0% | inhibition at 10 µM [3, 12]: 31% | LPS % cell toxicity [4, 13]: 0% | Quadrant (FIG. 5b) [5, 14]: Q4

O=C(OC[C@H]1O[C@@H](OC(=O)c2cc(O)c(O)c(OC(=O)c3cc(O)c(O)c(O)c3)c2)[C@H](OC(=O)c2cc(O)c(O)c(OC(=O)c3cc(O)c(O)c(O)c3)c2)[C@@H](OC(=O)c2cc(O)c(O)c(OC(=O)c3cc(O)c(O)c(O)c3)c2)[C@@H]1OC(=O)c1cc(O)c(O)c(OC(=O)c2cc(O)c(O)c(O)c2)c1)c1cc(O)c(O)c(OC(=O)c2cc(O)c(O)c(O)c2)c1 [Tannic acid, reference compound]
inhibition at 10 µM [1, 10]: 32% | IC50 ([1]; Rattus norvegicus, Microglia, Table 7, read-out: LPS_IC50): 4.38 µM | Fibrin % cell toxicity [2, 11]: 0% | IC50 ([3]; Rattus norvegicus, Microglia, Table 7, read-out: fib_IC50): 4.96 µM | inhibition at 10 µM [3, 12]: -60% | LPS % cell toxicity [4, 13]: 1% | Quadrant (FIG. 5b) ([5]; Table 2, screen at 10 μM): Q4 | Activity ([5]; Table 7, fib = fibrin, LPS, tox = toxicity): fib/LPS | Quadrant (FIG. 5b) [5, 14]: Q4

CCOC(=O)C1=C[C@@H](OC(CC)CC)[C@H](NC(C)=O)[C@@H](N)C1 [Oseltamivir]
inhibition at 10 µM [1, 10]: 26% | Fibrin % cell toxicity [2, 11]: 1% | Fibrin % inhibition ([3]; primary microglia HTS, fibrin stimulation, increased cell size (>800 μm^2) as marker of activation): −28% | LPS % cell toxicity [4, 13]: 1% | Quadrant (FIG. 5b) [5, 14]: Q4

C=C(C)[C@H]1CN[C@H](C(=O)O)[C@H]1CC(=O)O [Kainic Acid]
inhibition at 10 µM [1, 15]: 14% | Fibrin % cell toxicity [2, 16]: 0% | inhibition at 10 µM [3, 17]: -77% | LPS % cell toxicity [4, 18]: 0% | Quadrant (FIG. 5b) [5, 14]: Q4

O=C(NCC1CCCCN1)c1cc(OCC(F)(F)F)ccc1OCC(F)(F)F (centres unmarked) [Flecainide]
inhibition at 10 µM [1, 15]: 5% | Fibrin % cell toxicity [2, 16]: 0% | inhibition at 10 µM [3, 17]: -35% | LPS % cell toxicity [4, 18]: 0% | Quadrant (FIG. 5b) [5, 14]: Q4

O=C(O[C@H]1C[C@H]2CC[C@@H](C1)[N+]21CCCC1)C(O)(c1ccccc1)c1ccccc1 [Trospium Chloride]
inhibition at 10 µM [1, 19]: 9% | Fibrin % cell toxicity [2, 20]: 0% | inhibition at 10 µM [3, 21]: -39% | LPS % cell toxicity [4, 22]: 1% | Quadrant (FIG. 5b) [5, 23]: Q4

CO/N=C1\C[C@]2(C[C@@H]3C[C@@H](C/C=C(\C)C[C@@H](C)/C=C/C=C4\CO[C@@H]5[C@H](O)C(C)=C[C@@H](C(=O)O3)[C@]45O)O2)O[C@H](/C(C)=C/C(C)C)[C@H]1C [Moxidectin]
inhibition at 10 µM [1, 10]: 14% | Fibrin % cell toxicity [2, 11]: 0% | inhibition at 10 µM [3, 12]: 1% | LPS % cell toxicity [4, 13]: 1% | Quadrant (FIG. 5b) [5, 14]: Q4

CCc1nn(CCCN2CCN(c3cccc(Cl)c3)CC2)c(=O)n1CCOc1ccccc1 [Nefazodone]
inhibition at 10 µM [1, 10]: 3% | Fibrin % cell toxicity [2, 11]: 0% | inhibition at 10 µM [3, 12]: -37% | LPS % cell toxicity [4, 13]: 0% | Quadrant (FIG. 5b) [5, 14]: Q4

[H]/N=C(/N)NS(=O)(=O)c1ccc(N)cc1 [Sulfaguanidine]
inhibition at 10 µM [1, 19]: 12% | Fibrin % cell toxicity [2, 20]: 1% | inhibition at 10 µM [3, 21]: -23% | LPS % cell toxicity [4, 22]: 0% | Quadrant (FIG. 5b) [5, 23]: Q4

COc1ncnc(NS(=O)(=O)c2ccc(N)cc2)c1OC [Sulfadoxine]
inhibition at 10 µM [1, 19]: 3% | Fibrin % cell toxicity [2, 20]: 1% | inhibition at 10 µM [3, 21]: -12% | LPS % cell toxicity [4, 22]: 0% | Quadrant (FIG. 5b) [5, 23]: Q4

O=C(O)c1cc(=O)c2ccccc2o1 [Chromocarb]
inhibition at 10 µM [1, 6]: 5% | Fibrin % cell toxicity [2, 7]: 1% | inhibition at 10 µM [3, 8]: -7% | LPS % cell toxicity [4, 9]: 0% | Quadrant (FIG. 5b) ([5]; primary HTS, 10 μM): Q4

Chlorophyllide Cu Complex Na Salt
LPS % inhibition ([1]; primary HTS, 10 μM, LPS-stimulated primary microglia): 9% | Fibrin % cell toxicity [2, 7]: 0% | Fibrin % inhibition ([3]; primary HTS, 10 μM, fibrin-stimulated primary microglia): −36% | LPS % cell toxicity [4, 9]: 0% | Quadrant (FIG. 5b) ([5]; primary HTS, 10 μM): Q4

CN1CCN(C(c2ccccc2)c2ccc(Cl)cc2)CC1 (centres unmarked) [Chlorcyclizine]
inhibition at 10 µM [1, 6]: 6% | Fibrin % cell toxicity [2, 7]: 1% | inhibition at 10 µM [3, 8]: 9% | LPS % cell toxicity [4, 9]: 0% | Quadrant (FIG. 5b) ([5]; primary HTS, 10 μM): Q4

CC1(C)O[C@@H]2[C@@H](CO[C@@]3(COS(N)(=O)=O)OC(C)(C)O[C@@H]23)O1 [Topiramate]
inhibition at 10 µM [1, 19]: 5% | Fibrin % cell toxicity [2, 20]: 1% | inhibition at 10 µM [3, 21]: 4% | LPS % cell toxicity [4, 22]: 0% | Quadrant (FIG. 5b) [5, 23]: Q4

CCCCCCCCCCCCCCCC[N+](C)(C)CCN(Cc1ccc(OC)cc1)c1ncccn1 [Thonzonium Bromide]
inhibition at 10 µM [1, 19]: 19% | Fibrin % cell toxicity [2, 20]: 0% | inhibition at 10 µM [3, 21]: -1% | LPS % cell toxicity [4, 22]: 1% | Quadrant (FIG. 5b) [5, 23]: Q4

NCc1ccccc1CC(=O)N[C@@H]1C(=O)N2C(C(=O)O)=C(CSc3nnnn3CC(=O)O)CS[C@H]12 [Ceforanide]
inhibition at 10 µM [1, 6]: 14% | Fibrin % cell toxicity [2, 7]: 1% | inhibition at 10 µM [3, 8]: -2% | LPS % cell toxicity [4, 9]: 1% | Quadrant (FIG. 5b) ([5]; primary HTS, 10 μM): Q4

CCCc1nc2c(C)cc(-c3nc4ccccc4n3C)cc2n1Cc1ccc(-c2ccccc2C(=O)O)cc1 [Telmisartan]
inhibition at 10 µM [1, 19]: -2% | Fibrin % cell toxicity [2, 20]: 0% | inhibition at 10 µM [3, 21]: -24% | LPS % cell toxicity [4, 22]: 0% | Quadrant (FIG. 5b) [5, 23]: Q4

CN(C/C=C/C#CC(C)(C)C)Cc1cccc2ccccc12 [Terbinafine, Terbinafine Hydrochloride]
LPS % inhibition ([1]; primary microglia HTS, 10 μM, LPS-stimulated, cell size >800 μm^2 as marker of activation): 6% | Fibrin % cell toxicity [2, 20]: 0% | Fibrin % inhibition ([3]; primary microglia HTS, 10 μM, fibrin-stimulated, cell size >800 μm^2 as marker of activation): −23% | LPS % cell toxicity [4, 22]: 0% | Quadrant (FIG. 5b) [5, 23]: Q4

C#C[C@]1(O)CC[C@H]2[C@@H]3[C@H](C)CC4=C(CCC(=O)C4)[C@H]3CC[C@@]21C [Tibolone]
inhibition at 10 µM [1, 19]: 4% | Fibrin % cell toxicity [2, 20]: 0% | inhibition at 10 µM [3, 21]: -8% | LPS % cell toxicity [4, 22]: 0% | Quadrant (FIG. 5b) [5, 23]: Q4

C[C@H]1COc2c(N3CCN(C)CC3)c(F)cc3c(=O)c(C(=O)O)cn1c23 [Levofloxacin]
inhibition at 10 µM [1, 15]: 31% | Fibrin % cell toxicity [2, 16]: 1% | inhibition at 10 µM [3, 17]: 12% | LPS % cell toxicity [4, 18]: 0% | Quadrant (FIG. 5b) [5, 14]: Q4

NCCC(O)(P(=O)(O)O)P(=O)(O)O [Pamidronate]
inhibition at 10 µM [1, 10]: -5% | Fibrin % cell toxicity [2, 11]: 1% | inhibition at 10 µM [3, 12]: 0% | LPS % cell toxicity [4, 13]: 0% | Quadrant (FIG. 5b) [5, 14]: Q4

CS(=O)(=O)c1ccc([C@@H](O)[C@@H](CF)NC(=O)C(Cl)Cl)cc1 [Florfenicol]
inhibition at 10 µM [1, 15]: 16% | Fibrin % cell toxicity [2, 16]: 1% | inhibition at 10 µM [3, 17]: -12% | LPS % cell toxicity [4, 18]: 1% | Quadrant (FIG. 5b) [5, 14]: Q4

Source: patent US20210330611A1, “THERAPY FOR NEUROLOGICAL DISEASES/DISORDERS” (priority 2020, published 2021)
